# Patent US7695930B2, “Method for the detection, identification and/or quantification of microoganisms with peptidase activity using phenoxazinone derivatives as enzyme substrates” (Biomerieux, priority 2003, dated 2010)
# Tests used:
# Format in all cases: cell-based
# Citrobacter freundii = test: Leucine-peptidase detection on agar medium (Example 11); on color of the colony: key: B corresponds to fluorescent blue; R corresponds to pink
# Protocol: (§1) The detection medium was prepared by mixing 1.4 g of biogelytone (bioMérieux), 0.84 g of meat extract (bioMérieux), 2.24 g of NaCl (Merck), 280 μl of a solution of IPTG (isopropylthio-β-D-galactopyranoside, BIOSYNTH) in water (concentration 10 g/l) and 4.2 g of European agar (bioMérieux).
# (§2) The substrate of the invention obtained in Example 2, in which the amino acid is leucine (leucine-9-aminobenzo[a]phenoxazin-5-one or Leu-ABP), or else a substrate of the prior art, which is leucine-aminomethylcoumarin (Leu-AMC, BACHEM), was then added in the following way: 280 ml of osmosed water were added to the medium, and the mixture was melted in a waterbath at 100° C. The mixture was autoclaved for 15 min at 121° C. and cooled to 50° C. in a waterbath.
# (§3) The medium was then poured into Petri dishes.
# (§4) The coloration of these colonies, the diffusion, and also the intensity of this coloration were noted.
# (§5) The results were expressed as intensity of coloration using an arbitrary scale ranging from 0 to 4 as a basis and also as diffusion also using an arbitrary scale ranging from 0 to 4 as a basis.
# Escherichia coli = test: as above; on color of the colony: key: B corresponds to fluorescent blue; R corresponds to pink
# Protocol: as §1, §2, §3, §4, §5
# Enterococcus faecalis = test: as above; on color of the colony: key: B corresponds to fluorescent blue; R corresponds to pink
# Protocol: as §1, §2, §3, §4, §5
# [1] = test system: Staphylococcus epidermis (NCTC 11047); test: Alanine peptidase detection, substrates with one to three amino acids (Example 15); set-up: key to color of the colony: R=pink; RP=pale pink; I=colorless; details: 50 mg/l
# Protocol: (§6) 1000 ml of Columbia medium was melted in a waterbath at 100° C. and autoclaved at 121° C. for 15 min. It was then cooled to 50° C. in a waterbath.
# (§7) This medium was separated into 5 flasks of 200 ml, and then, added at 50° C., as substrates, was that of Example 2 for which A is: • medium 1: L-alanine (L-alanine-9-aminobenzo[a]phenoxazin-5-one or A-ABP), • medium 2: L-alanine-L-alanine (L-alanine-L-alanine-9-aminobenzo-[a]phenoxazin-5-one or AA-ABP), • medium 3: L-alanine-L-alanine-L-alanine (L-alanine-L-alanine-L-alanine-9-aminobenzo[a]phenoxazin-5-one or AAA-ABP), • medium 4: L-alanine-glycine (L-alanine-glycine-9-aminobenzo[a]phenoxazin-5-one or AG-ABP), and • medium 5: glycine-L-alanine (glycine-L-alanine-9-aminobenzo[a]phenoxazin-5-one or GA-ABP), each substrate being solubilized in DMSO and used at a final concentration of 50 mg/l.
# as §3
# (§8) Nine microorganism strains derived from the Applicant's collection, suspended in physiological saline, were seeded in colonies on the media prepared in point 15.1 above according to a multipoint inoculation in a proportion of 15 000 cfu/spot. The dishes were incubated at 37° C. for 48 hours. The colonies formed were examined visually after incubation for 24 and 48 hours.
# (§9) The results are expressed in Tables 7 and 8 hereinafter according to the rules and the nomenclature stated in paragraph 11.3 and where R=pink, RP=pale pink and I=colorless.
# [2] = test system: Micrococcus luteus (NCTC611); test: as above; set-up: key to color of the colony: R=pink; RP=pale pink; I=colorless; details: 50 mg/l
# Protocol: as §6, §7, §3, §8, §9
# [3] = test system: Staphylococcus aureus (NCTC 6571); test: as above; set-up: key to color of the colony: R=pink; RP=pale pink; I=colorless; details: 50 mg/l
# Protocol: as §6, §7, §3, §8, §9
# [4] = test system: Pseudomonas aerigunosa (NCTC 10038); test: as above; set-up: key to color of the colony: R=pink; RP=pale pink; I=colorless; details: 50 mg/l
# Protocol: as §6, §7, §3, §8, §9
# [5] = test system: Enterobacter clocae (NCTC 11936); test: as above; set-up: key to color of the colony: R=pink; RP=pale pink; I=colorless; details: 50 mg/l
# Protocol: as §6, §7, §3, §8, §9
substance,measurement,setting,value
leucine-9-aminobenzo[a]phenoxazin-5-one [Leu-ABP],color of the colony,"Citrobacter freundii; 24 h, 25 mg/l",R
same,growth diameter,"Citrobacter freundii; 24 h, 25 mg/l",0.7 mm
same,"intensity of coloration, scale 0 to 4","Citrobacter freundii; 24 h, 25 mg/l",1.5
same,color of the colony,"Citrobacter freundii; 24 h, 50 mg/l",R
same,growth diameter,"Citrobacter freundii; 24 h, 50 mg/l",0.7 mm
same,"intensity of coloration, scale 0 to 4","Citrobacter freundii; 24 h, 50 mg/l",1.5
same,color of the colony,"Citrobacter freundii; 24 h, 100 mg/l",R
same,growth diameter,"Citrobacter freundii; 24 h, 100 mg/l",0.7 mm
same,"intensity of coloration, scale 0 to 4","Citrobacter freundii; 24 h, 100 mg/l",0.75
same,color of the colony,"Citrobacter freundii; 24 h, 200 mg/l",R
same,growth diameter,"Citrobacter freundii; 24 h, 200 mg/l",0.8 mm
same,"intensity of coloration, scale 0 to 4","Citrobacter freundii; 24 h, 200 mg/l",1
same,color of the colony,"Citrobacter freundii; 24 h, 400 mg/l",R
same,growth diameter,"Citrobacter freundii; 24 h, 400 mg/l",0.7 mm
same,"intensity of coloration, scale 0 to 4","Citrobacter freundii; 24 h, 400 mg/l",2
same,color of the colony,"Citrobacter freundii; 48 h, 25 mg/l",R
same,growth diameter,"Citrobacter freundii; 48 h, 25 mg/l",0.7 mm
same,"intensity of coloration, scale 0 to 4","Citrobacter freundii; 48 h, 25 mg/l",2.5
same,color of the colony,"Citrobacter freundii; 48 h, 50 mg/l",R
same,growth diameter,"Citrobacter freundii; 48 h, 50 mg/l",0.7 mm
same,"intensity of coloration, scale 0 to 4","Citrobacter freundii; 48 h, 50 mg/l",2.5
same,color of the colony,"Citrobacter freundii; 48 h, 100 mg/l",R
same,growth diameter,"Citrobacter freundii; 48 h, 100 mg/l",0.7 mm
same,"intensity of coloration, scale 0 to 4","Citrobacter freundii; 48 h, 100 mg/l",1.5
same,color of the colony,"Citrobacter freundii; 48 h, 200 mg/l",R
same,growth diameter,"Citrobacter freundii; 48 h, 200 mg/l",0.8 mm
same,"intensity of coloration, scale 0 to 4","Citrobacter freundii; 48 h, 200 mg/l",2
same,color of the colony,"Citrobacter freundii; 48 h, 400 mg/l",R
same,growth diameter,"Citrobacter freundii; 48 h, 400 mg/l",0.7 mm
same,"intensity of coloration, scale 0 to 4","Citrobacter freundii; 48 h, 400 mg/l",2
same,color of the colony,"Escherichia coli; 24 h, 25 mg/l",R
same,growth diameter,"Escherichia coli; 24 h, 25 mg/l",1.8 mm
same,"intensity of coloration, scale 0 to 4","Escherichia coli; 24 h, 25 mg/l",0.0
same,color of the colony,"Escherichia coli; 24 h, 50 mg/l",R
same,growth diameter,"Escherichia coli; 24 h, 50 mg/l",1.7 mm
same,"intensity of coloration, scale 0 to 4","Escherichia coli; 24 h, 50 mg/l",0.5
same,color of the colony,"Escherichia coli; 24 h, 100 mg/l",R
same,growth diameter,"Escherichia coli; 24 h, 100 mg/l",1.8 mm
same,"intensity of coloration, scale 0 to 4","Escherichia coli; 24 h, 100 mg/l",0.0
same,growth diameter,"Escherichia coli; 24 h, 200 mg/l",1.7 mm
same,color of the colony,"Escherichia coli; 24 h, 400 mg/l",R
same,growth diameter,"Escherichia coli; 24 h, 400 mg/l",1.8 mm
same,"intensity of coloration, scale 0 to 4","Escherichia coli; 24 h, 400 mg/l",0.75
same,color of the colony,"Escherichia coli; 48 h, 25 mg/l",R
same,growth diameter,"Escherichia coli; 48 h, 25 mg/l",1.8 mm
same,"intensity of coloration, scale 0 to 4","Escherichia coli; 48 h, 25 mg/l",0.25
same,color of the colony,"Escherichia coli; 48 h, 50 mg/l",R
same,growth diameter,"Escherichia coli; 48 h, 50 mg/l",1.8 mm
same,"intensity of coloration, scale 0 to 4","Escherichia coli; 48 h, 50 mg/l",0.5
same,color of the colony,"Escherichia coli; 48 h, 100 mg/l",R
same,growth diameter,"Escherichia coli; 48 h, 100 mg/l",1.8 mm
same,growth diameter,"Escherichia coli; 48 h, 200 mg/l",1.7 mm
same,growth diameter,"Escherichia coli; 48 h, 400 mg/l",1.8 mm
same,color of the colony,"Enterococcus faecalis; 24 h, 25 mg/l",R
same,growth diameter,"Enterococcus faecalis; 24 h, 25 mg/l",0.3 mm
same,"intensity of coloration, scale 0 to 4","Enterococcus faecalis; 24 h, 25 mg/l",0.0
same,color of the colony,"Enterococcus faecalis; 24 h, 50 mg/l",R
same,growth diameter,"Enterococcus faecalis; 24 h, 50 mg/l",0.3 mm
same,"intensity of coloration, scale 0 to 4","Enterococcus faecalis; 24 h, 50 mg/l",0.0
same,growth diameter,"Enterococcus faecalis; 24 h, 100 mg/l",0.3 mm
same,growth diameter,"Enterococcus faecalis; 24 h, 200 mg/l",0.3 mm
same,growth diameter,"Enterococcus faecalis; 24 h, 400 mg/l",0.3 mm
same,color of the colony,"Enterococcus faecalis; 48 h, 25 mg/l",R
same,growth diameter,"Enterococcus faecalis; 48 h, 25 mg/l",0.3 mm
same,"intensity of coloration, scale 0 to 4","Enterococcus faecalis; 48 h, 25 mg/l",0.0
same,color of the colony,"Enterococcus faecalis; 48 h, 50 mg/l",R
same,growth diameter,"Enterococcus faecalis; 48 h, 50 mg/l",0.3 mm
same,"intensity of coloration, scale 0 to 4","Enterococcus faecalis; 48 h, 50 mg/l",0.0
same,color of the colony,"Enterococcus faecalis; 48 h, 100 mg/l",R
same,growth diameter,"Enterococcus faecalis; 48 h, 100 mg/l",0.3 mm
same,"intensity of coloration, scale 0 to 4","Enterococcus faecalis; 48 h, 100 mg/l",0.0
same,growth diameter,"Enterococcus faecalis; 48 h, 200 mg/l",0.3 mm
same,color of the colony,"Enterococcus faecalis; 48 h, 400 mg/l",R
same,growth diameter,"Enterococcus faecalis; 48 h, 400 mg/l",0.3 mm
same,"intensity of coloration, scale 0 to 4","Enterococcus faecalis; 48 h, 400 mg/l",0.5
L-alanyl-9-aminobenzo[a]phenoxazin-5-one [Ala-ABP],growth diameter,[1]; 24 h,0 mm
same,growth diameter,[1]; 48 h,0 mm
same,growth diameter,[2]; 24 h,0 mm
same,growth diameter,[2]; 48 h,0 mm
same,growth diameter,[3]; 24 h,0 mm
same,color of the colony,[3]; 48 h,I
same,growth diameter,[3]; 48 h,2 mm
same,color of the colony,[4]; 24 h,R
same,growth diameter,[4]; 24 h,3 mm
same,color of the colony,[4]; 48 h,R
same,growth diameter,[4]; 48 h,3 mm
same,color of the colony,[5]; 24 h,R
same,growth diameter,[5]; 24 h,3 mm
same,color of the colony,[5]; 48 h,R
same,growth diameter,[5]; 48 h,3 mm
